Experimental data reported in patent publication US9302999B2, “Substituted triazoles as herbicides” (E. I. DU PONT DE NEMOURS AND COMPANY, priority 2012, dated 2016).

Tests used:
[1] = tested on: waterhemp_RES1 (ALS/Triazine resistant common waterhemp, Amaranthus rudis); test: Test F postemergence: waterhemp_RES1; format: in vivo; conditions: scale 0 to 100
From the text: (§1) Seeds of plant species selected from corn (Zea mays), soybean (Glycine max), velvetleaf (Abutilon theophrasti), lambsquarters (Chenopodium album), poinsettia, wild (wild poinsettia, Euphorbia heterophylla), pigweed, palmer (palmer pigweed, Amaranthus palmeri), waterhemp (common waterhemp, Amaranthus rudis), surinam grass (Brachiaria decumbens), crabgrass, Brazil (Brazilian crabgrass, Digitaria horizontalis), panicum, fall (fall panicum Panicum dichotomiflorum), crabgrass, large (large crabgrass, Digitaria sanguinalis), foxtail, giant (giant foxtail, Setaria faberii), foxtail, green (green foxtail Setaria viridis), goosegrass (Eleusine indica), ragweed (common ragweed, Ambrosia elatior), barnyardgrass (Echinochloa crus-galli), sandbur (southern sandbur, Cenchrus echinatus), arrowleaf sida (Sida rhombifolia), ryegrass, Italian (Italian ryegrass, Lolium multiflorum), dayflower, VA (Virginia (VA) dayflower, Commelina virginica), field bindweed (Convolvulus arvensis), cocklebur (common cocklebur, Xanthium strumarium), morningglory (Ipomoea coccinea), nightshade (eastern black nightshade, Solanum ptycanthum), kochia (Kochia scoparia), nutsedge, yellow (yellow nutsedge, Cyperus esculentus), johnsongrass (Sorghum halepense), smartweed (ladysthumb smartweed, Polygonum persicaria), and beggarticks (hairy beggarticks, Bidens pilosa), were planted into a silt loam soil and treated preemergence with test chemicals formulated in a non-phytotoxic solvent mixture which included a surfactant. At the same time, plants selected from these crop and weed species and also pigweed (Amaranthus retroflexus), waterhemp_RES1 (ALS/Triazine resistant common waterhemp, Amaranthus rudis) and waterhemp_RES2 (ALS/HPPD resistant common waterhemp, Amaranthus rudis) were planted in pots containing a planting medium comprising spaghnum peat moss, vermiculite, wetting agent and starter nutrients treated with postemergence applications of some of the test chemicals formulated in the same manner. Plants ranged in height from 2 to 18 cm for postemergence treatments (1- to 4-leaf stage).
(§2) Treated plants and controls were maintained in a greenhouse for 14 to 21 days, after which time all species were compared to controls and visually evaluated. Plant response ratings, summarized in Table E, are based on a scale of 0 to 100 where 0 is no effect and 100 is complete control. A dash (-) response means no test result.

[2] = tested on: waterhemp_RES2 (ALS/HPPD resistant common waterhemp, Amaranthus rudis); test: Test F postemergence: waterhemp_RES2; format: in vivo; conditions: scale 0 to 100
From the text: as §1, §2

Row | SMILES | Plant response rating, Waterhemp, Res1 ([1]; 16 g ai/ha) | Plant response rating, Waterhemp, Res1 ([1]; 31 g ai/ha) | Plant response rating, Waterhemp, Res1 ([1]; 62 g ai/ha) | Plant response rating, Waterhemp, Res1 ([1]; 125 g ai/ha) | Plant response rating, Waterhemp, Res1 ([1]; 250 g ai/ha) | Plant response rating, Waterhemp, Res2 ([2]; 16 g ai/ha) | Plant response rating, Waterhemp, Res2 ([2]; 31 g ai/ha) | Plant response rating, Waterhemp, Res2 ([2]; 62 g ai/ha) | Plant response rating, Waterhemp, Res2 ([2]; 125 g ai/ha) | Plant response rating, Waterhemp, Res2 ([2]; 250 g ai/ha) | Plant response rating, Waterhemp, Res1 ([1]; 8 g ai/ha) | Plant response rating, Waterhemp, Res2 ([2]; 8 g ai/ha)
1 | CCc1nn(-c2ccc(C(F)(F)F)cc2)nc1Oc1ccnc(C(F)(F)F)c1 [Compound 169] | 85 | 90 | 90 | 95 | 95 | 75 | 85 | 95 | 100 | 100 |  | 
2 | CCCc1nn(-c2ccc(F)c(F)c2)nc1Oc1ccnc(C(F)(F)F)c1 [Compound 172] |  | 70 |  | 95 | 95 |  |  |  |  |  |  | 
3 | CCOc1nn(-c2ccc(F)cc2)nc1Cc1ccnc(C(F)(F)F)c1 [Compound 196, 4-[[5-ethoxy-2-(4-fluorophenyl)-2H-1,2,3-triazol-4-yl]methyl]-2-(trifluoromethyl)pyridine] | 95 | 95 | 95 | 100 |  | 90 | 95 | 95 | 95 |  | 95 | 90
